Data as given in patent US7420001B2 (Wyeth, priority 2003, dated 2008).
Where two headings read alike, the source gives them in different places.

Experiments:
[1] = molecular target: T1, Aggrecanase-1 (Homo sapiens, UniProt O75173); assay: Aggrecanase-1 FRET assay; type: biochemical; conditions: for IC50: rAgg1, WAAG-3R substrate, read-out: AGG-1 IC50
T1 sequence (O75173 213-837): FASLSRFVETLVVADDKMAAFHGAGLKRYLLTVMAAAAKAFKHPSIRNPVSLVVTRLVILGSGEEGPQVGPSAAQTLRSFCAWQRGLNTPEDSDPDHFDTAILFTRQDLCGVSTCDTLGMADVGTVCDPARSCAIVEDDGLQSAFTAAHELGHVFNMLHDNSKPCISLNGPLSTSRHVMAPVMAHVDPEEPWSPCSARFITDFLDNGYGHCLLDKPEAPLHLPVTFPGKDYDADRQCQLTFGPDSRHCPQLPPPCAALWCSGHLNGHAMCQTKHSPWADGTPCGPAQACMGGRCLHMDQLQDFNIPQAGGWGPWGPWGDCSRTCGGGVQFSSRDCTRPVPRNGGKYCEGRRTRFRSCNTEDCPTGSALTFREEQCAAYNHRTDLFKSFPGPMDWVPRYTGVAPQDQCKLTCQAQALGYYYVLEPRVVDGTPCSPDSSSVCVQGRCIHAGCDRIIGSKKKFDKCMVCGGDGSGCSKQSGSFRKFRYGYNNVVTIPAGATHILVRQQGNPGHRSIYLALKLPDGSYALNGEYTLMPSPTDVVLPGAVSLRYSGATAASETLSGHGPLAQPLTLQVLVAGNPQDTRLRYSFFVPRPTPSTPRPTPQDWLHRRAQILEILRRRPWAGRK
Description: h. Aggrecanase-1 FRET Assay:
The following protocol was used: • Fluorimeter was started and temperature set to 30° C., about 30 min before setting up the assay. The following reagents are used: • Buffer: 50 mM HEPES, pH 7.5, 100 mM NaCl, 5 mM CaCl2, 0.1% CHAPS, 5% glycerol. • rAgg1: 5 μg/ml (final concentration in the assay): • Substrate: WAAG-3R (MWT=1645.8, Anaspec, stored at 4° C.). Make a stock at 2 mg/ml in 100% DMSO. Measure the absorbance at 354 nm (ε=18172 M^−1 cm^−1) to determine the exact concentration. Dilute to 62.5 μM in buffer. Store unused 100% DMSO stock at −80° C. Final concentration of substrate in the assay is 25 μM. […] Make up inhibitors at 10× starting concentration in 100% DMSO. Perform serial dilutions (in duplicate) across the nunc plate in 100% DMSO; • Dilution plates: Nunc, polypropylene low binding (Nalgene) • Assay plate: Fluoronunc (Nalgene) • Fluorimeter: GeminiXS (Molecular Devices).; • The assay is performed as follows: The plates are set up so that the final column (12) is used for controls. Total reaction volume is 100 μl. Each compound is assayed in duplicate, so 4 compounds are screened per plate. • 1) Add buffer to the entire 96-well plate (30 ρl/well). • 2) Dilute rAgg1 to 25 μg/ml buffer just prior to addition on the plate. Add 20 μl/well to all wells. Mix 6 times. • 3) Add 10 μl/well of 10× inhibitors from the working plate, except column 12. Mix 6 times. […] Mix 6 times.
The reaction is monitored for 30-40 min at 30° C. λex: 340 nm and λ em: 420 nm). The fluorescence is linear during this time and the slope of the line (Vmax/sec) represents the initial reaction rate, ν. The maximal rate of cleavage of substrate is determined in the absence of inhibitor. The percent inhibition of activity in the presence of inhibitor is calculated as follows:
[formula] The IC50 was obtained by fitting the initial rate, ν, or % inhibition at each concentration of inhibitor to the following equation in Excel. y=(a−d)/(1+C/IC50)^n)+d This model describes a sigmoidal curve with an adjustable baseline, […]. y is the % inhibition or initial rate of reaction, C is the concentration of inhibitor under test. a is the limiting response as C approaches zero. […] The sign of n is positive when the response increases with increasing dose and is negative when the response decreases with increasing dose (inhibition).

[2] = molecular target: T2, MMP-14 (Homo sapiens, UniProt P50281); assay: In-vitro fluorescence assay of MMP-14 activity; type: biochemical
T2 construct: 20 kDa; purchased Chemicon International, Inc. CC 1041

[3] = molecular target: T3, MMP-13 (Homo sapiens, UniProt P45452); assay: In-vitro fluorescence assay of MMP-13 activity; type: biochemical
T3 construct: made in house

[4] = molecular target: T4, MMP-2 (Homo sapiens, UniProt P08253); assay: In-vitro fluorescence assay of MMP-2 activity; type: biochemical
T4 construct: purchased Oncogene Research Products (Calbiochem) PF023
T4 sequence (P08253 110-660): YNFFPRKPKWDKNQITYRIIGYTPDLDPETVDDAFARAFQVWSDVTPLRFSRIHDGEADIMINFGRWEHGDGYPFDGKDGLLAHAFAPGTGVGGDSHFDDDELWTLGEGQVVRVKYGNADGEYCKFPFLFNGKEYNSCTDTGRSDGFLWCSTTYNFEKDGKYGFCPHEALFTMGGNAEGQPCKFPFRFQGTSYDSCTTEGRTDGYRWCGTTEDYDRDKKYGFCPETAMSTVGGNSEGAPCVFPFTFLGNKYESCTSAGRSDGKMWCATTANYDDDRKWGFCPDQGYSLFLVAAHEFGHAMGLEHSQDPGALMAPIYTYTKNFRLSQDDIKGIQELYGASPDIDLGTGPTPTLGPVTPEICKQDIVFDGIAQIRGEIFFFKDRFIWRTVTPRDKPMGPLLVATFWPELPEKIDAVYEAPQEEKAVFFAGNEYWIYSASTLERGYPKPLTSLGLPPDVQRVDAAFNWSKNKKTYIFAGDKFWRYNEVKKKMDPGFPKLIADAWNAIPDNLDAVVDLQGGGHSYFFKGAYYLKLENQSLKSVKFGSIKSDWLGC

[5] = molecular target: T5, MMP-1 (Homo sapiens, UniProt P03956)
T5 sequence (P03956 100-269 limits assumed): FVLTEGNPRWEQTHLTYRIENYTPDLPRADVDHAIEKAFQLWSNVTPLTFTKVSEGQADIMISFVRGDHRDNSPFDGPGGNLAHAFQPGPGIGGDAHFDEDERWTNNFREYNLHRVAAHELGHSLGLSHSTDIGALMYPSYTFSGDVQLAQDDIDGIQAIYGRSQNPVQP

[6] = molecular target: T6, MMP-7 (Homo sapiens, UniProt P09237); assay: MMP-7 activity assay; type: biochemical; conditions: recombinant human MMP-7
T6 construct: Active, recombinant human MMP-7 was purchased from Calbiochem (catalog #444270; expressed in E. coli, 19 kDa); purchased Calbiochem 444270; host or cells: E. coli
T6 sequence (P09237 95-267): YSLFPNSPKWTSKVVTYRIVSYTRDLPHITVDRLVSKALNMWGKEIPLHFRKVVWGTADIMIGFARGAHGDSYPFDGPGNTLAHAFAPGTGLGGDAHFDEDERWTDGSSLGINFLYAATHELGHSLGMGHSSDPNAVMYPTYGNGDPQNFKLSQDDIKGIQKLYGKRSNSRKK

[7] = molecular target: T7, MMP-9 (Homo sapiens, UniProt P14780); assay: MMP-9 activity assay; type: biochemical; conditions: recombinant human MMP-9
T7 construct: Active, recombinant human MMP-9 (83 kDa) was purchased from Calbiochem (catalog #PF024); purchased Calbiochem PF024

[8] = molecular target: T8, MMP-12 (Homo sapiens, UniProt P39900); assay: In vitro fluorescence assay of MMP-12 activity; type: biochemical; conditions: recombinant human MMP-12
T8 construct: made in house

[9] = recombinant human catalytic domain of MMP-14
[10] = recombinant human catalytic domain of MMP-13, read-out: MMP-13 IC50
[11] = recombinant human MMP-2, read-out: MMP-2 IC50

T7 sequence (P14780 107-707 limits assumed): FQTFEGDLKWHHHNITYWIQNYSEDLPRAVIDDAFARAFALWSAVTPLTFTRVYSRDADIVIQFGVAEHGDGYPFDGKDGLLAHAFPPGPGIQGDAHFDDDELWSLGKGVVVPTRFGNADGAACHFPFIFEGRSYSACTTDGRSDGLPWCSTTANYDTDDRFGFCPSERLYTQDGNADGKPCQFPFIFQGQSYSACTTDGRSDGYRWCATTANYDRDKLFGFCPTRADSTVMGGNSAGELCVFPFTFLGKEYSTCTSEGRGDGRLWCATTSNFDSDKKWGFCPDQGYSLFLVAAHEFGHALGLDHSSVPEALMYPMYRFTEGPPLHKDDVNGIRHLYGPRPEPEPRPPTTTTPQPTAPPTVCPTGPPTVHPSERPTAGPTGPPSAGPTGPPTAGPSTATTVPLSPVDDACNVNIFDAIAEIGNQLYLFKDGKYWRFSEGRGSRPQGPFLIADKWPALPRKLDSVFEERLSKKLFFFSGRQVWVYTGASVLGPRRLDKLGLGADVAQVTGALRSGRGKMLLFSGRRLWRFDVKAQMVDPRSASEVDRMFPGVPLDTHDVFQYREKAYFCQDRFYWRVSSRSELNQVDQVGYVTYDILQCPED
T8 sequence (P39900 106-280 limits assumed): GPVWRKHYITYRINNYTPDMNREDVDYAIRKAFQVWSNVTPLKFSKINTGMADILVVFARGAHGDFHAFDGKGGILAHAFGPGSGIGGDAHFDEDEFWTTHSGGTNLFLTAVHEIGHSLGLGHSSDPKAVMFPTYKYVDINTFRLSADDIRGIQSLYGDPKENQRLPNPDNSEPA

IC50 [1] [nM] | IC50 [2, 9] [nM] | IC50 [3, 10] [nM] | IC50 [4, 11] [nM] | Structure (SMILES) | further results
800 | 12000 | 5.2 | 64 | Cc1cc(-c2ccc(S(=O)(=O)N[C@@H](C(=O)O)C(C)C)cc2)cc(C)c1OC(=O)c1cc2ccccc2o1 [Example 133, D-Benzofuran-2-carboxylic acid 4′-(1-carboxy-2-methyl-propylsulfamoyl)-3,5-dimethyl-biphenyl-4-yl ester] | IC50 [5]: 100000 nM
25400 | – | 115 | – | CC(C)[C@@H](NS(=O)(=O)c1ccc(-c2ccc(NC(=O)c3cccs3)cc2)cc1)C(=O)O [Example 173, (R)-3-Methyl-2-{4′-[(thiophene-2-carbonyl)-amino]-biphenyl-4-sulfonylamino}-butyric acid] | –
42000 | – | – | – | CC(C)[C@@H](NS(=O)(=O)c1ccc(-c2ccc(N(C)C(=O)c3cc4ccccc4o3)cc2)cc1)C(=O)O [Example 75, D-2-{4′-[(Benzofuran-2-carbonyl)-methyl-amino]-biphenyl-4-sulfonylamino}-3-methyl-butyric acid] | –
12700 | 1430 | 1.1 | 5.6 | CC(C)[C@@H](NS(=O)(=O)c1ccc(-c2ccc(CS(=O)(=O)c3cc4ccccc4o3)cc2)cc1)C(=O)O [Example 164, D-2-[4′-(Benzofuran-2-sulfonylmethyl)-biphenyl-4-sulfonylamino]-3-methyl-butyric acid] | IC50 [5]: 500000 nM
8600 | – | – | – | CC(C)[C@@H](NS(=O)(=O)c1ccc(-c2ccc(OC(=O)c3ccoc3)cc2)cc1)C(=O)O [Example 145, N-{[4′-(3-Furoyloxy)-1,1′-biphenyl-4-yl]sulfonyl}-D-valine] | –
20000 | 2120 | 1.2 | 5.6 | CC(C)[C@@H](NS(=O)(=O)c1ccc(-c2ccc(C[S+]([O-])c3cc4ccccc4o3)cc2)cc1)C(=O)O (stereo partly drawn) [Example 165, D-2-[4′-(Benzofuran-2-sulfinylmethyl)-biphenyl-4-sulfonylamino]-3-methyl-butyric acid] | IC50 [8]: 4.6 nM
43000 | 8920 | 29 | 6.9 | CC(C)[C@@H](NS(=O)(=O)c1ccc(-c2ccc(NC(=O)c3ccco3)cc2)cc1)C(=O)O [Example 172, (R)-2-{4′-[(Furan-2-carbonyl)-amino]-biphenyl-4-sulfonylamino}-3-methyl-butyric acid] | IC50 [5]: 18500 nM
2200 | 100000 | 14 | 346 | Cc1cc(-c2ccc(S(=O)(=O)N[C@@H](C(=O)O)C(C)C)cc2)cc(C)c1OC(=O)c1oc2ccccc2c1C [Example 132, D-3-Methyl-benzofuran-2-carboxylic acid 4′-(1-carboxy-2-methyl-propylsulfamoyl)-3,5-dimethyl-biphenyl-4-yl ester] | –

Structure (SMILES) | IC50 [1] [nM] | IC50 [2, 9] [nM] | IC50 [3, 10] [nM] | IC50 [4, 11] [nM] | further results
Cc1c(C(=O)Oc2ccc(-c3ccc(S(=O)(=O)N[C@@H](C(=O)O)C(C)C)cc3)cc2)oc2ccccc12 [Example 134, D-3-Methyl-benzofuran-2-carboxylic acid 4′-(1-carboxy-2-methyl-propylsulfamoyl)-biphenyl-4-yl ester] | 113 | 6250 | 1.2 | 17 | –
CCC(C)Oc1cccc2oc(C(=O)Nc3ccc(-c4ccc(S(=O)(=O)N[C@H](C(=O)O)C(C)C)cc4)cc3)c(C)c12 (stereo partly drawn) [Example 53, L-2-{4′-[(4-sec-Butoxy-3-methyl-benzofuran-2-carbonyl)-amino]-biphenyl-4-sulfonylamino}-3-methyl-butyric acid] | – | – | 17 | 10000 | IC50 [6]: 2600 nM; IC50 [7]: > 4000 nM
CC(C)C(NS(=O)(=O)c1ccc(-c2ccc(NS(=O)(=O)c3cccs3)cc2)cc1)C(=O)O (stereo in doubt) [Example 171, (R)-3-Methyl-2-[4′-(thiophene-2-sulfonylamino)-biphenyl-4-sulfonylamino]-butyric acid] | – | – | 1090 | – | inhibition at 150 µM ([1]; read-out: AGG-1 % inhibition at a concentration): 60%
CC(C)[C@@H](NS(=O)(=O)c1ccc(-c2ccc(OCc3nc4ccccc4s3)cc2)cc1)C(=O)O [Example 137, D-2-[4′-(Benzothiazol-2-ylmethoxy)-biphenyl-4-sulfonylamino]-3-methyl-butyric acid] | 2500 | – | 4.6 | 23.9 | inhibition at […] ([2]; read-out: MMP-14 % inhibition at a concentration, at 1.6 uM): 49%
COc1c(Br)ccc2oc(COc3ccc(-c4ccc(S(=O)(=O)N[C@H](C(=O)O)C(C)C)cc4)cc3)c(C)c12 [Example 148, N-({4′-[(5-Bromo-4-methoxy-3-methyl-1-benzofuran-2-yl)methoxy]-1,1′-biphenyl-4-yl}sulfonyl)-L-valine] | 400 | – | – | – | IC50 ([3]; MMP-13 IC50, recombinant human catalytic domain of MMP-13): 1.4 nM; IC50 [4]: 136 nM
CC(C)[C@H](NS(=O)(=O)c1ccc(-c2ccc(NC(=O)c3cc4ccccc4o3)cc2)cc1)C(=O)O [Example 2, L-2-{4′-[(Benzofuran-2-carbonyl)-amino]-biphenyl-4-sulfonylamino}-3-methyl-butyric acid] | – | – | – | 6.5 | IC50 [2]: 2200 nM; IC50 [7]: 1100 nM; IC50 [5]: > 3500 nM
